Results on 1 molecule are retold here after patent publication US20260286302A1, “METHODS FOR PRODUCING A SUPER CENTRAL MEMORY CD8 T CELL SUBTYPE BY POLY(ADP-RIBOSE) POLYMERASE (PARP) INHIBITION AND USES THEREOF” (Georgetown University, priority 2023, published 2026).

Assay [1] has as its system CD8+ T cells in TME of B16F10 tumors. The experiment in a line: Immune profiling of the TME, B16F10 tumor-bearing mice. The class given is in vivo, mouse. An excerpt:
Two-to-three days after the second vaccination, mice in the various groups were euthanized and tumors were collected.
A total of 0.1-0.2×10^6 cells per sample were stained for Live/Dead staining followed by fixation and permeabilization. For IFNγ and granzyme B (Gzm B) staining, BD Cytofix/Cytoperm (catalog no. 51-2090KZ) and BD Perm/Wash (catalog no. 51-2091KZ) buffer set were used according to the manufacturer's instructions (BD Pharmingen). CD8^+ T cells from tumor samples were stained similarly. Data acquisition was performed on a BD LSR II flow cytometer using the software FACS Diva v.9.0. Results were analyzed using FlowJo software (TreeStar). MitoFM, a green-fluorescent mitochondrial stain, which localizes to mitochondria, was used as described previously (Sukumar et al., Cell Metab 23 (1): 63-76, 2016).

Assay [2] concerns pMel-1 CD8 T cells. The experiment in a line: RT-PCR gene expression in TCM^sup versus TCM. The class given is cell-based, mouse. The conditions noted are these: TCM^sup vs gp100-induced TCM. From the text: Total RNA was extracted from gp100 or gp100 plus PARPi-activated CD8 T cells using the RNeasy Mini Kit (Qiagen, catalog no. 74004) following the manufacturer's instructions. The extraction included a digestion step with DNase I to prevent subsequent amplification of genomic DNA. One μg total RNA was subjected to single-strand complementary DNA synthesis using High-Capacity cDNA Reverse Transcription Kit (Thermo Fisher, catalog no. 4368814). The Taqman® gene expression assay from Applied Biosystems was used for qrtPCR, and primer pairs (catalog no. 4331182) from Applied Biosystems were used to detect gene expression of Eomes (#Mm01351984-m1), Acot1 (#Mm0162271-S1), Cpt1a (#Mm0123183-m1), Klf2 (#Mm00500486-g1), CD62L (#Mm00441291-m1),CCR7 (#Mm99999130-s1), and Cdkn1b (#Mm00438168-m1). Data were procured using StepOnePlus Real-Time PCR System from Applied Biosystems and normalized to the geometric mean of the housekeeping gene beta-actin (β-actin) (#Mm02619580-g1).

In another assay the test system is TC-1 tumors. The assay is described as follows: TC-1 tumor model: tumor growth and survival. The class given is in vivo, mouse. The following applies: for mice survived: TC-1 tumor model, day 22. As to the method:
C57BL/6J mice were injected with 7×10^4 TC-1 cells per mouse or 1×10^5B16F10 cells per mouse in the right flank. Treatment in respective groups was started when tumors reached an average size of approximately 0.075 cm^3. […] Mice were treated daily with IP injection at a dose of 50 mg kg-1.
For vaccination, TC-1-specific E7 peptide (a nine amino acid peptide, […] (SEQ ID NO: 1); 100 μg per mouse per 100 μl; Celtak Bioscience) or B16-specific gp10025-33 nonamer peptide ([…] (SEQ ID NO: 2); 100 μg per mouse per 100 μl; AnaSpec) were used. Both the vaccines were mixed with a small 13-mer nonnatural pan-HLA DR-binding epitope (PADRE (SEQ ID NO: 3); aK-Cha-[…]a (SEQ ID NO: 4), where ‘a’ is d-alanine, and ‘Cha’ is 1-cyclohexylalanine, T helper epitope, 20 μg per mouse; Celtak Bioscience) and QuilA (adjuvant, 10 μg per mouse; Brenntag). For survival and therapy experiments, mice were vaccinated three times, starting at an average tumor size of 0.07 cm^3, while for immune response experiments mice were vaccinated twice with a one-week interval between vaccinations. Tumors were measured every 3-4 days using a digital vernier caliper, and the tumor volume was calculated using the formula: V=L×W2/2000, where V is tumor volume, L is the length of the tumor (longer diameter) and W is the width of the tumor (shorter diameter). Mice were monitored for tumor growth and survival. Mice were euthanized when the tumor volume reached 1.5 cm^3.

The test system of assay [3] is pMel-1 CD8 T cells. The experiment in a line: RNA-sequencing of gp100-activated pMel-1 CD8 T cells. The class given is cell-based, mouse. From the text: Ribo-Zero Plus Kit from Illumina® was used for stranded Total RNA Prep Ligation. This protocol involves the removal of ribosomal RNA (rRNA) using biotinylated, target-specific oligos combined with Ribo-Zero rRNA removal beads. RNA was fragmented into small pieces and the cleaved RNA fragments were copied into first strand cDNA using reverse transcriptase and random primers, followed by second strand cDNA synthesis using DNA Polymerase I and RNase H. The resulting double-strand cDNA were used as the input to a standard Illumina library prep with end-repair, adapter ligation and PCR amplification being performed to give a sequencing ready library. The final purified product was then quantitated by qPCR before cluster generation and sequencing on NovaSeq 6000 instrument.

The test system of a further assay is TC-1. The assay is described as follows: Tumor growth in immune deficient nude mice (TC-1). It is filed as in vivo, mouse. The conditions noted are these: TC-1 in immune deficient nude mice. As to the method:
The effect of PARPi on direct CD8 T cell-driven anti-tumor immune response remains poorly understood. Therefore, to dissect this effect, the anti-tumor immune effect of PARPi was tested in vivo in tumor models that require T cell priming, which helps delineate the direct effect of the drug on CD8 T cells. […] While 18% and 10% of mice survived in the vaccine-treated and PARPi-treated groups, respectively, in the TC-1 tumor model at day 22, 90% survived when PARPi was added to the vaccine. Similarly, in the B16F10 tumor model, 10% of the mice treated with vaccine alone were alive at day 22, compared to 40% when PARPi was added.

With `O=C(c1cc(Cc2n[nH]c(=O)c3ccccc23)ccc1F)N1CCN(C(=O)C2CC2)CC1` [olaparib], the “number of total and antigen-specific CD8+ T cells in TME” value in assay [1] (B16, vaccinated in the presence of PARPi vs either treatment alone) is “significant increase”. For the same molecule, the “IFNγ+ and granzyme B+ total and antigen-specific CD8+ T cells” value in assay [1] (B16F10, PARPi given with the vaccine) was “enhanced functionality”. Besides, the “vaccine-induced central memory CD8 T cells in the TME” value in assay [1] (B16F10, PARPi with vaccine) was “increased”. Moreover, in assay [1] (B16F10 TME), the “proliferation of CD8 T cells as determined by Ki67 expression” value was “significant decrease”. In addition, in the assay with pMel-1 CD8 T cells [2], the “FOXO1-regulated memory genes (Cd62l, Klf2, Tcf7, Ccr7)” value was “upregulated”; the “expression of Acot1 and Cpt1α” value is reported as “significantly higher”. In addition, the “tumor growth and survival, enhancement of anti-tumor immune response of the vaccine” value with TC-1 tumors (TC-1, PARPi 50 mg/kg IP daily in combination with HPV E7 vaccine) is “significantly retarding tumor growth and prolonging survival”. Moreover, the “anti-tumor effect after depletion of CD8 T cells” value in the assay with TC-1 tumors (TC-1, PARPi with vaccine, CD8 T cell depleting antibodies) is recorded as “loss of the anti-tumor effect”. Further, the mice survived with TC-1 tumors (PARPi added to the vaccine (HPV E7)) was 90%. This molecule also showed a mice survived in the assay on TC-1 tumors (treatment alone) of 10%. Moreover, in the assay on pMel-1 CD8 T cells [3] (PARPi-treated vs gp100, 48 h), the “genes related to OXPHOS and FAO (Acot1, Cpt1α)” value is listed as “significantly upregulated”; the “genes related to the glycolysis pathway (Eno1, Aldoc, Pgk1, Gapdh)” value is given as “significantly downregulated”. In the assay on pMel-1 CD8 T cells [3] (after PARPi treatment, 48 h), the “expression of genes related to memory (Sell, Bcl2, Ccr7, Slpr1, Cd44, Tcf7, Klf2, Eomes)” value is “significant increase”. Also, the tumor growth result with TC-1 is reported as “did not affect tumor growth”.
